Results published in publication PMC9092428, “Towards identification of protein–protein interaction stabilizers via inhibitory peptide-fragment hybrids using templated fragment ligation” (RSC Chemical Biology, 2022).
Square brackets hold non-standard residues; d marks the D form. Peptide text beside a SMILES is read from it. * marks the point of attachment. 5FAM = O=C1OC2(c3ccc(O)cc3Oc3cc(O)ccc32)c2ccc(C(=O)*)cc21; pS = N[C@@H](COP(=O)(O)O)C(=O)O; Ahx = NCCCCCC(=O)O

How the values were obtained:
Format in all cases: binding
[1] = target: T1, 14-3-3η (Homo sapiens, UniProt Q04917); test: Fluorescence anisotropy (FA) competition assay against tracer hDMX361–374^pSer367*; conditions: Fig. 2b experiment; hydrazide equilibrated with 5 eq. aldehyde, serially diluted; 50 nM hDMX361–374^pSer367*, 1 μM 14-3-3η, 50 mM NH4OAc, 10 mM aniline, 1 mM DTT, pH 6.5
T1 construct: full length proteins were concentrated by centrifugation; His tag (pProEx HTb vector) (N); made in house; host or cells: E. coli BL21(DE3)
T1 sequence (Q04917 1-246): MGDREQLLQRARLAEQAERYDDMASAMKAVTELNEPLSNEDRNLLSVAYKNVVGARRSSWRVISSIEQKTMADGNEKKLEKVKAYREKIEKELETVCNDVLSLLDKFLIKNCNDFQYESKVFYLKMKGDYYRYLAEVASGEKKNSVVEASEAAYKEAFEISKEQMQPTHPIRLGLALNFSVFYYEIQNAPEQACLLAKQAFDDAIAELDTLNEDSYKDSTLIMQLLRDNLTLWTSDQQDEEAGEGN
Protocol: A fluorescence anisotropy (FA) competition assay was subsequently carried out using conditions previously found suitable for acylhydrazone formation (pH 6.5, 50 mM NH4OAc, 10 mM aniline) with added DTT (1 mM) to supress disulfide formation. hDMX361–369^pSer367Gly-hydrazide was used to compete with a tracer peptide: hDMX361–374^pSer367* for binding to 14-3-3η (Fig S2, ESI ^†). […] Initial attempts to screen in cocktails, established the aldehydes had no affect on their own (Fig. S3, ESI ^†). We then performed an assay where each aldehyde was screened individually with hDMX361–369^pSer367Gly-hydrazide. A decrease in anisotropy can be attributed to a particular hydrazone product, avoiding the additional step of product identification e.g. by HRMS, and, combines the equilibration step for hydrazone formation with 14-3-3η screening (Fig. 2a). […] To confirm the single-concentration results, a competition assay was performed (Fig. 2b). hDMX361–369^pSer367Gly-hydrazide was equilibrated with 5 equivalents of each aldehyde (product formation confirmed by LC-MS, see Fig. S4, ESI ^†), and serially diluted against the tracer peptide (hDMX361–374^pSer367*) and 14-3-3η protein.
Fig. 2 Dynamic ligation screening based on hDMX361–369^pSer367Gly-hydrazide (a) Anisotropy values of individually screened hydrazones (relative to buffer, zero activity negative control in grey), hDMX361–374^pSer367 (blue) and hDMX361–369^pSer367Gly-hydrazide (red) as positive controls with hits (hDMX361–369^pSer367Gly-hydrazone-FC45 and hDMX361–369^pSer367Gly-hydrazone-SIG17) highlighted in orange boxes (10 μM acetylated hydrazide peptide mixed with 5 eq. of aldehyde, 1 μM 14-3-3η, 50 nM hDMX361–374^pSer367*, 50 mM NH4OAc, 10 mM aniline and 1 mM DTT) (b) competition FA curves for hydrazones taken forward as hits (50 nM hDMX361–374^pSer367*, 1 μM 14-3-3η in 50 mM NH4OAc, 10 mM aniline and 1 mM DTT).
Fig. 3 Dynamic ligation screening based on hDMX361–370^pSer367Gly-hydrazide (a) anisotropy values of individually screened hydrazones (relative to buffer, zero activity negative control in grey), hDMX361–374^pSer367 (blue) and hDMX361–370^pSer367Gly-hydrazide (red) as positive controls with hits highlighted in black boxes (10 μM acetylated hydrazide peptide mixed with 5 eq. of aldehyde, 1 μM 14-3-3η, 50 nM hDMX361–374^pSer367*, 50 mM NH4OAc, 10 mM aniline and 1 mM DTT) (b) representative competition FA curves for hydrazones taken forwards as hits (50 nM hDMX361–374^pSer367*, 1 μM 14-3-3η in 50 mM NH4OAc, 10 mM aniline and 1 mM DTT). […]
(§1) Screening was performed using fluorescence anisotropy competition assay, in 50 mM NH4Ac pH 6.5 buffer containing 10 mM aniline, 1 mM DTT. […]

[2] = target: T1, 14-3-3η; test: Dynamic ligation screen, FA competition at single concentration; conditions: 10 μM acetylated hydrazide peptide with 5 eq. aldehyde, 24 h room temperature, 1 μM 14-3-3η, 50 nM hDMX361–374^pSer367*, 50 mM NH4OAc, 10 mM aniline, 1 mM DTT; duplicates
Protocol: A fluorescence anisotropy (FA) competition assay was subsequently carried out using conditions previously found suitable for acylhydrazone formation (pH 6.5, 50 mM NH4OAc, 10 mM aniline) with added DTT (1 mM) to supress disulfide formation. hDMX361–369^pSer367Gly-hydrazide was used to compete with a tracer peptide: hDMX361–374^pSer367* for binding to 14-3-3η (Fig S2, ESI ^†). […] Initial attempts to screen in cocktails, established the aldehydes had no affect on their own (Fig. S3, ESI ^†). We then performed an assay where each aldehyde was screened individually with hDMX361–369^pSer367Gly-hydrazide. A decrease in anisotropy can be attributed to a particular hydrazone product, avoiding the additional step of product identification e.g. by HRMS, and, combines the equilibration step for hydrazone formation with 14-3-3η screening (Fig. 2a). […]
Figure S3. […] Aldehydes were assessed as […]
as §1
Screening was performed using 10 μM acetylated hydrazide peptide mixed with 5 eq. of aldehyde, 1 μM 14-3-3η,. […] After 24 hours, hDMX tracer peptide was added to a concentration of 50 nM to the experiment wells or equal amount of buffers was added to the blanks and the plate was read immediately. […]

[3] = target: T1, 14-3-3η; test: FA direct titration of tracer peptide; conditions: tracer 50 nM, 10 mM HEPES, 150 mM NaCl, 0.1% Tween 20, 0.1% BSA, pH 7.4; triplicates; read-out: Kd (14-3-3 affinity by FA)
Protocol: To explore the effect of non-linked fragments, 5 commercially available fragments with similarity to the reduced aldehyde form of COOH4, FC50 and FC32; analogues bearing alcohol or methyl groups in place of the aldehyde (Fig. 3c) were assessed. For consistency a modified tracer peptide was used (hDMX361–370^pSer367Gly* i.e. analogous to the screening peptide but bearing FAM-Ahx). […] Stabilization of the peptide/14-3-3η interaction was observed as the anisotropy increased at the highest fragment concentration, consistent with millimolar affinities (Fig. 3c).
Figure S7. Direct titration of peptide for analysis of fragment stabilizing effects ( hDMX361- […]
(1 picture or pasted object on this page, not shown here)
Peptides were cleaved and side-chain deprotected using ‘Reagent K’ […]
Direct titration assay: All assays were performed in 384 well plates (each experiment was run in triplicates) and data were collected by Perkin Elmer EnVision 2013 plate reader with excitation at 480 nm (30 nm bandwidth), polarised dichroic mirror at 505 nm and emission at 535 nm (40 nm bandwidth, S and P polarised). […] A ½ fold dilution series was performed in the titration, with plates read after 30 min, 4 h and 20-24 h. […]
Collected data were processed in Microsoft Excel using the equations bellow. Total intensity I and anisotropy r were calculated using Equations 1 and 2 for each well. […]

CC[C@H](C)[C@H](NC(=O)[C@@H](NC(=O)[C@H](CCCNC(=N)N)NC(=O)[C@H](CCCNC(=N)N)NC(=O)[C@H](CS)NC(=O)[C@H](CC(=O)O)NC(C)=O)[C@@H](C)O)C(=O)N[C@@H](COP(=O)(O)O)C(=O)N[C@@H](C)C(=O)N1CCC[C@H]1C(=O)NCC(=O)N/N=C/c1scc(Br)c1Br [hDMX361–369^pSer367Gly-hydrazone-SIG17] (HELM PEPTIDE1{[ac].D.C.R.R.T.I.[O=C([C@H](COP(=O)(O)O)N[*:1])[*:2]].A.P.G.[Brc1csc(/C=N/N[*:1])c1Br]}$$$$V2.0)
IC50 [1]: 13.7 ± 0.5 µM
Anisotropy of individually screened hydrazones relative to controls (hit call) [2]: hits

CC[C@H](C)[C@H](NC(=O)[C@@H](NC(=O)[C@H](CCCNC(=N)N)NC(=O)[C@H](CCCNC(=N)N)NC(=O)[C@H](CS)NC(=O)[C@H](CC(=O)O)NC(=O)CCCCCNC(=O)c1ccc2c(c1)C(=O)OC21c2ccc(O)cc2Oc2cc(O)ccc21)[C@@H](C)O)C(=O)N[C@@H](COP(=O)(O)O)C(=O)N[C@@H](C)C(=O)N1CCC[C@H]1C(=O)N[C@H](C(=O)NCC(N)=O)C(C)C [hDMX361–370^pSer367Gly*] ({5FAM-Ahx}-DCRRTI[pS]APVG-NH2)
Kd [3]: 0.172 ± 0.0093 µM
